Experimental data as given in ChEMBL document CHEMBL1149037, “Vanicosides A and B, protein kinase C inhibitors from Polygonum pensylvanicum” (J Nat Prod, 1994).
≈ marks a conversion by molar mass, not a printed value. Calls of active or inactive are those of the source. The calls are words filed in the database; no cut-off is given here.

Legend:
[1] = Inhibition of PKC
MCF = test: Cytotoxicity against human MCF cells; type: functional, cell-based

IC50 [1] [µg/mL]	SMILES	Activity (MCF)
> 50	COc1cc(/C=C/C(=O)OC[C@H]2O[C@@H](O[C@]3(COC(=O)/C=C/c4ccc(OC(C)=O)cc4)O[C@H](COC(=O)/C=C/c4ccc(OC(C)=O)cc4)[C@@H](OC(C)=O)[C@@H]3OC(=O)/C=C/c3ccc(OC(C)=O)cc3)[C@H](OC(C)=O)[C@@H](OC(C)=O)[C@@H]2OC(C)=O)ccc1OC(C)=O	
44 (≈ 44 µM)	COc1cc(/C=C/C(=O)OC[C@H]2O[C@@H](O[C@]3(COC(=O)/C=C/c4ccc(O)cc4)O[C@H](COC(=O)/C=C/c4ccc(O)cc4)[C@@H](O)[C@@H]3OC(=O)/C=C/c3ccc(O)cc3)[C@H](OC(C)=O)[C@@H](O)[C@@H]2O)ccc1O [VANICOSIDE A]	Active
31 (≈ 32.4 µM)	COc1cc(/C=C/C(=O)OC[C@H]2O[C@H](O[C@]3(COC(=O)/C=C/c4ccc(O)cc4)O[C@H](COC(=O)/C=C/c4ccc(O)cc4)[C@@H](O)[C@@H]3OC(=O)/C=C/c3ccc(O)cc3)[C@H](O)[C@@H](O)[C@@H]2O)ccc1O [VANICOSIDE B]	Active
